Patent publication US9995734B2, “Human T cell line assay for evaluating the immunologic identity of glatiramer acetate preparations” (Mylan Inc., priority 2013, dated 2018)

System: Donor 1 COP T-Cell Lines
Experiment: IFN-γ ELISA, Donor 1 COP T-cell lines
Type: cell-based, human
Conditions: for IFN-γ (ELISA), mean: 10 μg/mL, autologous B-LCL; for IFN-γ production in response to GA: 222-2D8, 222-2E1, 222-2B11, 222-2C3, 222-2B8, 222-2G12, 222-2F12
Procedure: Culture medium was removed from cultures prepared as for proliferation assay and utilized to measure cytokine production. In most cases culture medium was collected 18-24 hours after mixing T-cells, APC, and stimulating antigen. Cytokine production was measured by ELISA or bead assay. For measuring cytokine production, 100-150 μL culture medium (100 μL if culture was to be continued, otherwise 150 μL) was removed from each well. In some cases, the culture was continued 48 hours, for a total of 72 hours of culture, and the proliferative response measured.
IFN-γ concentration in culture supernatants was measured by a sandwich ELISA using two anti-IFN-γ monoclonal antibodies. Clone 2G1 was used for capture, and biotinylated antibody from clone B133.5 was used for detection (both from Endogen). Recombinant IFN-γ was used to construct a standard curve ranging from 1000 to 15 pg/mL.
Based on the increases in ATP level observed (i.e., a ratio of relative luminescence in wells with antigen to control wells without antigen of two or more), fifteen presumptive GA-specific T-cell lines in the original plate were moved to a 24-well plate at Day 26 and restimulated with 10 μg/mL Copaxone in the presence of autologous EBV-transformed B-LCL (5×10^5 per well, i.e., 2.5×10^5/mL). At Day 27 IL-2 was added. On Day 34, the fifteen presumptive lines were restimulated with 10 μg/mL GMA or 10 μg/mL COP in the presence of mitomycin-treated autologous B-LCL (4×10^4 per well; 2×10^5 per mL), or incubated with mitomycin-treated autologous B-LCL and no antigen. On Day 35 IL-2 was added to continued cultures. On Day 36 culture supernatant was collected from test cultures and IFN-γ production measured by ELISA (48 hours after restimulation). IFN-γ protein concentrations were determined using a TMB standard curve.

[1] = 222-1G8, 48 hours, T-cells + B-LCL >1000
[2] = 222-1H12, 48 hours, T-cells + B-LCL >1000
[3] = 222-2B8, 48 hours, T-cells + B-LCL 599
[4] = 222-2B11, 48 hours, T-cells + B-LCL 354
[5] = 222-2C3, 48 hours, T-cells + B-LCL 538
[6] = 222-2D8, 48 hours after restimulation, T-cells + B-LCL 270
[7] = 222-2E1, 48 hours, T-cells + B-LCL 457
[8] = 222-2F12, 48 hours, T-cells + B-LCL 295
[9] = 222-2G12, 48 hours, T-cells + B-LCL 515

## glatiramer acetate [GMA]
222-1C5, 48 hours, T-cells + B-LCL 821
  IFN-γ (ELISA), mean: 776 pg/mL
222-1F8, 48 hours, T-cells + B-LCL 120
  IFN-γ (ELISA), mean: 169 pg/mL
[1]
  IFN-γ (ELISA), mean: >1000 pg/mL
[2]
  IFN-γ (ELISA), mean: >1000 pg/mL
[3]
  IFN-γ (ELISA), mean: >1000 pg/mL
[4]
  IFN-γ (ELISA), mean: >1000 pg/mL
222-2C1, 48 hours, T-cells + B-LCL 369
  IFN-γ (ELISA), mean: 392 pg/mL
[5]
  IFN-γ (ELISA), mean: >1000 pg/mL
222-2C5, 48 hours, T-cells + B-LCL 325
  IFN-γ (ELISA), mean: 245 pg/mL
222-2D2, 48 hours, T-cells + B-LCL 68
  IFN-γ (ELISA), mean: 131 pg/mL
  IFN-γ production in response to GA: reacted
[6]
  IFN-γ (ELISA), mean: >1000 pg/mL
[7]
  IFN-γ (ELISA), mean: >1000 pg/mL
[8]
  IFN-γ (ELISA), mean: >1000 pg/mL
222-2G4, 48 hours, T-cells + B-LCL 280
  IFN-γ (ELISA), mean: 438 pg/mL
[9]
  IFN-γ (ELISA), mean: >1000 pg/mL

## glatiramer acetate [COP]
222-1C5, 48 hours, T-cells + B-LCL 821, listed as Copaxone
  IFN-γ (ELISA), mean: 700 pg/mL
222-1F8, 48 hours, T-cells + B-LCL 120, listed as Copaxone
  IFN-γ (ELISA), mean: 156 pg/mL
[1]
  IFN-γ (ELISA), mean: >1000 pg/mL
[2]
  IFN-γ (ELISA), mean: >1000 pg/mL
[3]
  IFN-γ (ELISA), mean: >1000 pg/mL
[4]
  IFN-γ (ELISA), mean: >1000 pg/mL
222-2C1, 48 hours, T-cells + B-LCL 369, listed as Copaxone
  IFN-γ (ELISA), mean: 417 pg/mL
[5]
  IFN-γ (ELISA), mean: >1000 pg/mL
222-2C5, 48 hours, T-cells + B-LCL 325, listed as Copaxone
  IFN-γ (ELISA), mean: 273 pg/mL
222-2D2, 48 hours, T-cells + B-LCL 68, listed as Copaxone
  IFN-γ (ELISA), mean: 133 pg/mL
  IFN-γ production in response to GA: reacted
[6]
  IFN-γ (ELISA), mean: >1000 pg/mL
[7]
  IFN-γ (ELISA), mean: >1000 pg/mL
[8]
  IFN-γ (ELISA), mean: >1000 pg/mL
222-2G4, 48 hours, T-cells + B-LCL 280, listed as Copaxone
  IFN-γ (ELISA), mean: 416 pg/mL
[9]
  IFN-γ (ELISA), mean: >1000 pg/mL
